How the values were obtained:
[1] = tested on: Mycobacterium Rapid Grower; experiment: CFU of Mycobacterium Rapid Grower after Yoshixol; type: cell-based; settings: for CFU: 2 M Yoshixol in ethanol, 10 ul/ml broth, 3.3×10^5, 37° C.
From the text: (§1) This procedure was repeated twice.

[2] = intravenous injection of Yoshixol in control rabbit, observation for abnormal signs; type: in vivo; settings: Japanese white rabbit, 10 μl/Kg of 2 M Yoshixol with ethanol i.v. for 3 min, immediately after the injection through one month
Experimental: In addition, rabbit serum as the control which was shown in this example was produced by the following. In a Japanese white rabbit which was born from a parent as same as a rabbit which was used in the above example, 10 μl/Kg of 2 M Yoshixol with ethanol was injected intravenously for 3 min via a ear vein. Solution of Yoshixol was mixed with culture medium of 5 ml. The medium was filtered through miliporefilter of cellulose acetate (pore size, 0.45 μm). […] A rabbit was sacrificed under Nembutal anesthesia one month after the injection. Blood was removed.

[3] = tested on: Candida albicans; experiment: CFU of Candida albicans in broth after Yoshixol; type: cell-based; settings: for CFU: 2 M Yoshixol in ethanol, 10 ul/ml broth
From the text: as §1

[4] = tested on: MRSA; experiment: CFU of MRSA in broth after Yoshixol; type: cell-based, methicilin resistant Staphylococcus aureus
From the text: as §1

[5] = tested on: Pseudomonas aureginosa; experiment: CFU of Pseudomonas aureginosa after Yoshixol; type: cell-based; settings: for CFU: 2 M Yoshixol in ethanol, 10 ul/ml broth, 10^8, 37° C.
From the text: as §1

Question: With C=C1CC(C)(C)C=CC1=O [Yoshixol, 4,4-dimethyl-6-methylene-2-cyclohexen-1-one] as the compound, how does the CFU ([1]; 3 hours after the incubation) read?
Answer: zero

Question: What about the CFU ([1]; one hour after the incubation) of the same compound?
Answer: zero

Question: What about the “colony growth on heart infusion agar after re-plating 0.1 ml” value (shortened to “colony growth on heart infusion agar”) ([1]; incubated at 37° C. for 72 hours) of the same compound?
Answer: no colony growth

Question: And the “abnormal signs after injection” value [2]?
Answer: Any abnormal sign did not find

Question: What about the CFU ([3]; 10^8, 3 hours after the incubation) of the same compound?
Answer: zero

Question: And the CFU ([3]; 10^8, one hour after the incubation)?
Answer: zero

Question: What about the “colony growth on heart infusion agar” value ([3]; incubated for 48 hours) of the same compound?
Answer: no colony growth

Question: And the CFU ([4]; 2 M Yoshixol in ethanol, 10 ul/ml broth, 7.6×10^8, 37 °, 24 hours after the incubation)?
Answer: zero

Question: What about the “colony growth on heart infusion agar” value ([4]; incubated for 48 hours) of the same compound?
Answer: no colony growth

Question: And the CFU ([5]; 3 hours after the incubation)?
Answer: zero

Question: What about the CFU ([5]; one hour after the incubation) of the same compound?
Answer: zero

Question: What about the “colony growth on heart infusion agar” value ([5]; incubated at 37° C. for 48 hours) of the same compound?
Answer: no colony growth

Source: patent US7914793B2, “Method for producing an antigenic substance and antibody” (priority 1997, dated 2011)
